This is an account of results in PubChem BioAssay AID651987 (The Scripps Research Institute Molecular Screening Center, 2013).

Assay [1] deals with Acyl-protein thioesterase 1 (Homo sapiens) (UniProt O75608). The assay can be described thus: reversibility of LYPLA1/LYPLA2 inhibition, late-stage follow-up, mechanism study, cell lysate, gel-based ABPP, fluorescence, gel filtration, HEK293T proteome (AID 651987). To be noted: HEK293T soluble proteome. In general terms: Size exclusion chromatography separates by hydrodynamic size, large species first.
Acyl-protein thioesterase 1 (Homo sapiens), sequence (O75608 whole entry, looked up): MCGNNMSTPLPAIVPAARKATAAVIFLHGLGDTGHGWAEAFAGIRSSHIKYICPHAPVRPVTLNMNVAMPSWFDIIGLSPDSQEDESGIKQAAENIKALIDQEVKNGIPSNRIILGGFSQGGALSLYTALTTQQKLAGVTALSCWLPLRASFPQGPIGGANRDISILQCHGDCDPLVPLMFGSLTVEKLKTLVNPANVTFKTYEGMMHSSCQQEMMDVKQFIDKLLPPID

Assay [2] deals with Acyl-protein thioesterase 2 (Homo sapiens) (UniProt O95372). Described as above. To be noted: HEK293T soluble proteome.
Acyl-protein thioesterase 2 (Homo sapiens), sequence (O95372 whole entry, looked up): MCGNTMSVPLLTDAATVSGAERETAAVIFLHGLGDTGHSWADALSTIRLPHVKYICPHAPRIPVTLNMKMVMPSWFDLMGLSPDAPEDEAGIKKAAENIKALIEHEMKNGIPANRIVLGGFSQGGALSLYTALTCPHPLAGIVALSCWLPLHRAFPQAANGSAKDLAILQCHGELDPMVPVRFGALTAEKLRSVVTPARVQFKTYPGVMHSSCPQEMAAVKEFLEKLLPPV
Setting [3] is: LYPLA1, after 1 gel filtration, stronger effect = higher value.
[4] abbreviates: LYPLA1, after 2 gel filtrations, stronger effect = higher value.
Setting [5] is: LYPLA1, stronger effect = higher value, concentration not given here.
Where [6] appears, read: LYPLA2, after 1 gel filtration, stronger effect = higher value.
[7] abbreviates: LYPLA2, after 2 gel filtrations, stronger effect = higher value.
Setting [8] is: LYPLA2, stronger effect = higher value, concentration not given here.

Calls of active or inactive are those of the source.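 Rule for the calls: active = reversible inhibitor in any panel, blocking the enzyme before filtration but under 50% inhibition after two or more filtrations; inactive = irreversible inhibitor in every panel.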

As a reminder, the inhibition is the relative decrease from the control value, in per cent. Consider `COc1ccc(N2CCN(C(=O)c3cc4c(s3)-c3ccccc3S(=O)(=O)C4)CC2)cc1`, for which the inhibition in assay [1] (setting [3]) was 0%; in assay [1] (setting [4]) it was 0%; in assay [1] (setting [5]) it was 0% (inactive); in assay [2] (setting [6]), 100%; in assay [2] (setting [7]) it was 0%; in assay [2] (setting [8]), 100%.

Turning to `O=C(N1CCCCC1)n1ccnn1`, the inhibition in assay [1] (setting [3]) was 100%; in assay [1] (LYPLA1, after 3 gel filtrations, stronger effect = higher value), 100%; in assay [1] (setting [5]), 100% (inactive); in assay [2] (setting [6]), 100%; in assay [2] (LYPLA2, after 3 gel filtrations, stronger effect = higher value), 100%; in assay [2] (setting [8]) it was 100% (inactive).

Take `O=C(CN1CCN(C(=O)c2ccco2)CC1)Nc1cc(C(F)(F)F)ccc1Cl`: the inhibition in assay [1] (setting [3]) was 75%; in assay [1] (setting [4]) it was 0%; in assay [1] (setting [5]) it was 100%; in assay [2] (setting [6]) it was 0%; in assay [2] (setting [7]), 0%; in assay [2] (setting [8]) it was 0% (inactive).
